Experimental findings from patent US9902730B2, “Compounds and compositions as toll-like receptor 7 agonists” (NOVARTIS AG, priority 2014, dated 2018) are described below.

The assay concerns the target T1, human TLR7 (Homo sapiens, UniProt Q9NYK1).
T1 construct: expressed in transfected cells
T1 sequence (Q9NYK1 27-1049): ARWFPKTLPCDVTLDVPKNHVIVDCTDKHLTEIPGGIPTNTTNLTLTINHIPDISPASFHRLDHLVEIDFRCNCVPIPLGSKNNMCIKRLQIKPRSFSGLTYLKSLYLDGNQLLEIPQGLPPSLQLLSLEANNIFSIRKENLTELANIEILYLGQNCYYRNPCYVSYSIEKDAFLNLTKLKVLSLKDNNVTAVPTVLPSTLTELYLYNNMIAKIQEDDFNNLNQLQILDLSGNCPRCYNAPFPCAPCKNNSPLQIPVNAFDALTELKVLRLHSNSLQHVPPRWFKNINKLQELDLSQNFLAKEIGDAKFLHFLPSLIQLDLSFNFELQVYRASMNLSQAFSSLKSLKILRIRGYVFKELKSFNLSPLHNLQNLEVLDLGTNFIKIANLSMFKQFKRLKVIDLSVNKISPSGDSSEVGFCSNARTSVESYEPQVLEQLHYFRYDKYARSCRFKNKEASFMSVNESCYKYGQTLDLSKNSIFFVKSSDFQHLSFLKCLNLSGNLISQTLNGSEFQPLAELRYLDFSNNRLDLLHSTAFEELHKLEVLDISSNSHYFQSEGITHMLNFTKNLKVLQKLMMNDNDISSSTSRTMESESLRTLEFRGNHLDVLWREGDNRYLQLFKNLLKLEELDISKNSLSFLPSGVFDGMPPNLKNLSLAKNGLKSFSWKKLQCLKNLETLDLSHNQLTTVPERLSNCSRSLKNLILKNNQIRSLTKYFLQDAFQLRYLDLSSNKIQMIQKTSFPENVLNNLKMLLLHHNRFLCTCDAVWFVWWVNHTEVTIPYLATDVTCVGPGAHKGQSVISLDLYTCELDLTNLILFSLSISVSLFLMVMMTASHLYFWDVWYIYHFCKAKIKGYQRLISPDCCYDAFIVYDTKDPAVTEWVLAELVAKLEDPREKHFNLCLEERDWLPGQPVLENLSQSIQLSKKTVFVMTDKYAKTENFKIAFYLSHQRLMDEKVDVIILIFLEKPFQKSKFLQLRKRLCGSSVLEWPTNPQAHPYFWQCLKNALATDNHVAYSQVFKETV
The assay can be described thus: Reporter gene assay (HEK293 cells with human TLR7 and NF-kB-driven luciferase reporter). The format is cell-based. The conditions noted are these: HEK 293 cells stably transfected with human TLR7 and NF-kB-driven luciferase reporter; 7 hours incubation; EC50 relative to activity of resiquimod set to 100%. The protocol:
Human embryonic kidney 293 (HEK 293) cells were stably transfected with human TLR7 and an NF-kB-driven luciferase reporter vector (pNifty-Luciferase). As a control assay, normal Hek293 transfected with pNifty-Luc were used. Cells were cultured in DMEM supplemented with 2 mM L-glutamine, 10% heart inactivated FBS, 1% penicillin and streptomycin, 2 μg/ml puromycin (InvivoGen #ant-pr-5) and 5 μg/ml of blasticidin (Invitrogen #46-1120). Bright-Glo™ Luciferase assay buffer and substrate were supplied by Promega #E263B and #E264B (assay substrate and buffer respectively). 384 well clear-bottom plates were supplied by Greiner bio-one (#789163-G) and were custom bar-coded plates.
Cells were plated at 25,000 cells/well in 384-well plates in a final volume of 50 μl of media. Cells were allowed to adhere to the plates after overnight (18 hours) culture at 37° C. and 5% CO2. Serially diluted experimental and positive control compounds were then dispensed to each well and incubated for 7 hours at 37° C. and 5% CO2. Cells stimulated with DMSO alone also serve as negative controls. After the incubation, 30 μl of the pre-mix assay buffer and substrate buffer were added to each well according to manufacturer's instructions. The luminescence signal was read on a CLIPR machine with an integration time of 20 seconds per plate.
Dose response curves are generated for each compound and EC50 values were determined as the concentration that gives 50% of the maximal signal.
Regarding `CCCCCNc1nc(N)nc2ccn(Cc3cc(OCc4nnn[nH]4)ccc3OC)c12` [Example 1, 5-(5-((1H-tetrazol-5-yl)methoxy)-2-methoxybenzyl)-N4-pentyl-5H-pyrrolo[3,2-d]pyrimidine-2,4-diamine], the EC50 (commonly the concentration needed to bring the measured effect to its halfway point) turned out to be 0.1 µM.

The compound `CCCCCNc1nc(N)nc2ccn(Cc3cc(Cc4nnn[nH]4)ccc3OC)c12` [Example 2, 5-(5-((1H-tetrazol-5-yl)methyl)-2-methoxybenzyl)-N4-pentyl-5H-pyrrolo[3,2-d]pyrimidine-2,4-diamine] registered an EC50 of 0.05 µM.

The compound `CCCCCNc1nc(N)nc2ccn(Cc3cc(Cc4nnn(CC(=O)O)n4)ccc3OC)c12` [Example 3, 2-(5-(3-((2-amino-4-(pentylamino)-5H-pyrrolo[3,2-d]pyrimidin-5-yl)methyl)-4-methoxybenzyl)-2H-tetrazol-2-yl)acetic acid] gave an EC50 of 0.2 µM.

Compound `CCCCCNc1nc(N)nc2ccn(Cc3cc(CC(=O)O)ccc3OC)c12` [Example 4, 2-(3-((2-amino-4-(pentylamino)-5H-pyrrolo[3,2-d]pyrimidin-5-yl)methyl)-4-methoxyphenyl)acetic acid] showed an EC50 of 0.05 µM. This EC50 lies about 4-fold lower than the previous one.

Regarding `CCCC[C@@H](CO)Nc1nc(N)nc2ccn(Cc3cc(CC(=O)O)ccc3OC)c12` [Example 5, (S)-2-(3-((2-amino-4-((1-hydroxyhexan-2-yl)amino)-5H-pyrrolo[3,2-d]pyrimidin-5-yl)methyl)-4-methoxyphenyl)acetic acid], a half-maximal effect (EC50) was put at 0.4 µM. Compared with the last compound, the EC50 is about 8-fold higher.

Take `CCCC[C@@H](CO)Nc1nc(N)nc2ccn(Cc3cc(Cc4nnn[nH]4)ccc3OC)c12` [Example 6, (S)-2-((5-(5-((1H-tetrazol-5-yl)methyl)-2-methoxybenzyl)-2-amino-5H-pyrrolo[3,2-d]pyrimidin-4-yl)amino)hexan-1-ol]: the EC50 is 0.1 µM.

In the case of `CCC[C@@H](CO)Nc1nc(N)nc2ccn(Cc3cc(Cc4nnn[nH]4)ccc3OC)c12` [Example 7, (S)-2-((5-(5-((1H-tetrazol-5-yl)methyl)-2-methoxybenzyl)-2-amino-5H-pyrrolo[3,2-d]pyrimidin-4-yl)amino)pentan-1-ol], the EC50 turned out to be 0.8 µM.

In turn, `CCCCCNc1nc(N)nc2ccn(Cc3cc(-c4nnn[nH]4)ccc3OC)c12` [Example 8, 5-(2-methoxy-5-(1H-tetrazol-5-yl)benzyl)-N4-pentyl-5H-pyrrolo[3,2-d]pyrimidine-2,4-diamine] gave an EC50 of 0.3 µM. This EC50 is about 2.7-fold lower than that of the compound before.

Compound `CCCCCCNc1nc(N)nc2ccn(Cc3cc(-c4nnn[nH]4)ccc3OC)c12` [Example 9, N4-hexyl-5-(2-methoxy-5-(1H-tetrazol-5-yl)benzyl)-5H-pyrrolo[3,2-d]pyrimidine-2,4-diamine] yielded an EC50 of 0.8 µM.

For `CCCC[C@@H](CO)Nc1nc(N)nc2ccn(Cc3cc(-c4nnn[nH]4)ccc3OC)c12` [Example 10, (S)-2-((2-amino-5-(2-methoxy-5-(1H-tetrazol-5-yl)benzyl)-5H-pyrrolo[3,2-d]pyrimidin-4-yl)amino)hexan-1-ol], the EC50 came to 0.2 µM. Compared with the last compound, the EC50 is about 4-fold lower.

For the compound `CCCCCNc1nc(N)nc2ccn(Cc3cc(C(C)(C)c4nnn[nH]4)ccc3OC)c12` [Example 11, 5-(5-(2-(1H-tetrazol-5-yl)propan-2-yl)-2-methoxybenzyl)-N4-pentyl-5H-pyrrolo[3,2-d]pyrimidine-2,4-diamine], the EC50 worked out at 0.1 µM.

Compound `CCCC[C@@H](CO)Nc1nc(N)nc2ccn(Cc3cc(C(C)(C)c4nnn[nH]4)ccc3OC)c12` [Example 12, (S)-2-((5-(5-(2-(1H-tetrazol-5-yl)propan-2-yl)-2-methoxybenzyl)-2-amino-5H-pyrrolo[3,2-d]pyrimidin-4-yl)amino)hexan-1-ol] displayed an EC50 of 0.2 µM. Against the preceding compound, the EC50 is about 2-fold higher.

In turn, `CCCCCNc1nc(N)nc2ccn(Cc3cc(C(=O)O)ccc3OC)c12` [Example 13, 3-((2-amino-4-(pentylamino)-5H-pyrrolo[3,2-d]pyrimidin-5-yl)methyl)-4-methoxybenzoic acid] gave a half-maximal effective concentration (EC50) of 0.1 µM.

Consider `CCCCCNc1nc(N)nc2ccn(Cc3ccc(-c4nnn[nH]4)cc3OC)c12` [Example 14, 5-(2-methoxy-4-(1H-tetrazol-5-yl)benzyl)-N4-pentyl-5H-pyrrolo[3,2-d]pyrimidine-2,4-diamine], for which it took 1.4 µM to reach a half-maximal effect (EC50).

As for `CCCCCNc1nc(N)nc2ccn(Cc3cc(CCc4nnn[nH]4)ccc3OC)c12` [Example 15, 5-(5-(2-(1H-tetrazol-5-yl)ethyl)-2-methoxybenzyl)-N4-pentyl-5H-pyrrolo[3,2-d]pyrimidine-2,4-diamine], the midpoint of the response, the EC50, lay at 0.06 µM.

`CCCCCNc1nc(N)nc2ccn(Cc3cc(C(F)(F)c4nnn[nH]4)ccc3OC)c12` [Example 16, 5-(5-(difluoro(1H-tetrazol-5-yl)methyl)-2-methoxybenzyl)-N4-pentyl-5H-pyrrolo[3,2-d]pyrimidine-2,4-diamine] registered an EC50 of 0.2 µM. Compared with the last compound, the EC50 is about 3.3-fold higher.

The compound `CCCCCNc1nc(N)nc2ccn(Cc3cc(C(F)(F)C(=O)O)ccc3OC)c12` [Example 17, 2-(3-((2-amino-4-(pentylamino)-5H-pyrrolo[3,2-d]pyrimidin-5-yl)methyl)-4-methoxyphenyl)-2,2-difluoroacetic acid] came in with an EC50 of 0.5 µM.

`CCCCCNc1nc(N)nc2ccn(Cc3cc(CC[C@@H](O)C[C@@H](O)CC(=O)O)ccc3OC)c12` [Example 18, (3R,5R)-7-(3-((2-amino-4-(pentylamino)-5H-pyrrolo[3,2-d]pyrimidin-5-yl)methyl)-4-methoxyphenyl)-3,5-dihydroxyheptanoic acid] registered an EC50 of 0.6 µM.

In the case of `CCCCCNc1nc(N)nc2ccn(Cc3cc(P(=O)(O)O)ccc3OC)c12` [Example 19, (3-((2-amino-4-(pentylamino)-5H-pyrrolo[3,2-d]pyrimidin-5-yl)methyl)-4-methoxyphenyl)phosphonic acid], the EC50 is 0.08 µM.

Take `CCCCCNc1nc(N)nc2ccn(Cc3cc(P(=O)(O)OC)ccc3OC)c12` [Example 20, methyl hydrogen (3-((2-amino-4-(pentylamino)-5H-pyrrolo[3,2-d]pyrimidin-5-yl)methyl)-4-methoxyphenyl)phosphonate]: the half-maximal effective concentration (EC50) is 0.3 µM.

In turn, `CCCCCNc1nc(N)nc2ccn(Cc3cc(CCC(=O)O)ccc3OC)c12` [Example 21, 3-(3-((2-amino-4-(pentylamino)-5H-pyrrolo[3,2-d]pyrimidin-5-yl)methyl)-4-methoxyphenyl)propanoic acid] displayed an EC50 of 0.4 µM.

Regarding `CCCCCNc1nc(N)nc2ccn(Cc3cc(/C=C/C(=O)O)ccc3OC)c12` [Example 22, (E)-3-(3-((2-amino-4-(pentylamino)-5H-pyrrolo[3,2-d]pyrimidin-5-yl)methyl)-4-methoxyphenyl)acrylic acid], a half-maximal effect (EC50) was put at 0.7 µM.

As to `CCCC[C@@H](CO)Nc1nc(N)nc2ccn(Cc3cc(CCC(=O)O)ccc3OC)c12` [Example 23, (S)-3-(3-((2-amino-4-((1-hydroxyhexan-2-yl)amino)-5H-pyrrolo[3,2-d]pyrimidin-5-yl)methyl)-4-methoxyphenyl)propanoic acid], the concentration giving a half-maximal response (EC50) is 0.4 µM.

The compound `CCCCCNc1nc(N)nc2ccn(Cc3cc(CN4CCC[C@@H]4C(=O)O)ccc3OC)c12` [Example 24, (R)-1-(3-((2-amino-4-(pentylamino)-5H-pyrrolo[3,2-d]pyrimidin-5-yl)methyl)-4-methoxybenzyl)pyrrolidine-2-carboxylic acid] displayed an EC50 of 0.08 µM.

The compound `CCCCCNc1nc(N)nc2ccn(Cc3ccc(CN4CCC[C@H]4C(=O)O)cc3OC)c12` [Example 25, (S)-1-(4-((2-amino-4-(pentylamino)-5H-pyrrolo[3,2-d]pyrimidin-5-yl)methyl)-3-methoxybenzyl)pyrrolidine-2-carboxylic acid] came in with an EC50 of 0.008 µM.

Consider `CCCCCNc1nc(N)nc2ccn(Cc3ccc(OCC(=O)O)cc3OC)c12` [Example 26, 2-(4-((2-amino-4-(pentylamino)-5H-pyrrolo[3,2-d]pyrimidin-5-yl)methyl)-3-methoxyphenoxy)acetic acid], for which the EC50 was 0.4 µM.
